≈ marks a conversion by molar mass, not a printed value. Entries after “also recorded” stand apart in the source; their conditions may differ. Marks after values point to notes of the source that are not given here.
Assays:
[1] = molecular target: T1, BSEP (Homo sapiens, UniProt O95342); assay: in vitro
[2] = molecular target: T1, BSEP; assay: ATP-dependent uptake of test article by BSEP-transfected Sf9 membrane vesicles (substrate assessment); conditions: for remaining BSEP activity after cyclosporine A treatment: test article 1 and 10 μM + cyclosporine A 20 μM; for substrate of BSEP (conclusion in words): criteria ≥2-fold ATP-dependent uptake and >50% inhibition by selective inhibitor; for inhibition of test article uptake by cyclosporine A: cyclosporine A 20 μM
[3] = Solubility in stock solvent and assay buffers
[4] = molecular target: T1, BSEP; assay: Inhibition of 3H-taurocholic acid uptake by BSEP membrane vesicles (inhibitor assessment); conditions: for inhibitor of BSEP (conclusion in words): criterion >25% concentration-dependent inhibition of probe substrate uptake; for ATP-Dependent Uptake Activity of 3H-taurocholic acid / Signal-to-Noise Ratio / Uptake Activity of 3H-taurocholic acid, Mg-AMP / Uptake Activity of 3H-taurocholic acid, Mg-ATP: 3H-taurocholic acid 1 μM
[5] = test article 1 μM + cyclosporine 20 μM
[6] = test article 10 μM + cyclosporine 20 μM
[7] = assay buffers, aqueous buffer, kinetic from dmso stock
[8] = methanol, organic solvent or mixture
[9] = test article 10 μM, listed as UA

T1 sequence (O95342 whole entry): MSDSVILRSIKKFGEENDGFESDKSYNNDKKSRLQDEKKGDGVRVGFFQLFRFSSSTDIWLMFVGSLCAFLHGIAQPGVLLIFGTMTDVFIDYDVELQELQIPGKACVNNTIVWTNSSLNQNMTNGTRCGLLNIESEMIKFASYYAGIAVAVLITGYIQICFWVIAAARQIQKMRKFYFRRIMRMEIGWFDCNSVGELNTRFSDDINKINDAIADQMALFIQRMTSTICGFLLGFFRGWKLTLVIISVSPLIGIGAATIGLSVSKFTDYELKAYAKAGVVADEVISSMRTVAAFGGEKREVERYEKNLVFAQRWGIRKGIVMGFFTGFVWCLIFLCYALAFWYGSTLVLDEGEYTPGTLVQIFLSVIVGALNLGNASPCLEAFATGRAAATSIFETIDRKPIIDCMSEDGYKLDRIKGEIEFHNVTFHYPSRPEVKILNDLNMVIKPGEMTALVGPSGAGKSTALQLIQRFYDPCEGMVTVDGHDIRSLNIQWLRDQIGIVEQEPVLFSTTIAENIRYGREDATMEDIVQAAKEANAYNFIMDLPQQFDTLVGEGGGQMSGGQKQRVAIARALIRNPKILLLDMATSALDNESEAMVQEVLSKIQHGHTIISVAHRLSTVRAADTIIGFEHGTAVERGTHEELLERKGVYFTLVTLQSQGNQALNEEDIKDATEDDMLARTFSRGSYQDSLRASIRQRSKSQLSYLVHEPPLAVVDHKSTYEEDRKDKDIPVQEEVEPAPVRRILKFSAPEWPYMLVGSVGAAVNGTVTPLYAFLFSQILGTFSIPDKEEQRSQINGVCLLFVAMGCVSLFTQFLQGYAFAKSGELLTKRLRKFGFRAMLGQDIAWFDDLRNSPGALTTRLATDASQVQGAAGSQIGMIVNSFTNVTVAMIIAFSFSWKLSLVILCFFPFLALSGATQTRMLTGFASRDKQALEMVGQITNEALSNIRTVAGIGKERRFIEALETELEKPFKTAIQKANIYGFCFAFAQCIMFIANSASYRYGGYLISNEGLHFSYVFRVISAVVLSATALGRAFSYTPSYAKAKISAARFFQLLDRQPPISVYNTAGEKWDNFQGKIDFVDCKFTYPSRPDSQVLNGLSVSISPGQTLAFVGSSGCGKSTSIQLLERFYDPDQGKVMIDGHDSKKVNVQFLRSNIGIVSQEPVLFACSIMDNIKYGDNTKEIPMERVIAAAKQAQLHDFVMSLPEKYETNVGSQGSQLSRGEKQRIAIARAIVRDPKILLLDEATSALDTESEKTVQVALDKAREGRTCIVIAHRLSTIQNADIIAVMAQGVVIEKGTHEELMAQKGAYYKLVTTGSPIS

Compound	activity at 30 min, 50 μM [1] [%]	potency estimated from few doses at 30 min [1] [µM]	ATP-Dependent Uptake Activity of test article ([2]; test article 1 μM)	Uptake Activity of test article, Mg-AMP ([2]; test article 1 μM)	Uptake Activity of test article, Mg-ATP ([2]; test article 1 μM)	Uptake Activity of test article, Mg-AMP [2, 5]	Uptake Activity of test article, Mg-ATP [2, 5]	ATP-Dependent Uptake Activity of test article ([2]; test article 10 μM) [pmol/minute/mg protein]	Signal-to-Noise Ratio ([2]; test article 10 μM)	Uptake Activity of test article, Mg-AMP ([2]; test article 10 μM)	Uptake Activity of test article, Mg-ATP ([2]; test article 10 μM)	ATP-Dependent Uptake Activity of test article [2, 6]	Uptake Activity of test article, Mg-AMP [2, 6]	Uptake Activity of test article, Mg-ATP [2, 6]	ATP-dependent BSEP uptake activity relative to AMP uptake ([2]; test article 1 and 10 μM) [fold]	remaining BSEP activity after cyclosporine A treatment [2]	substrate of BSEP (conclusion in words) ([2]; test article 1 and 10 μM)	solubility [3, 7] [mM]	solubility [3, 8] [mM]	inhibitor of BSEP (conclusion in words) [4]	also measured
C[C@H](CCC(=O)NCCS(=O)(=O)O)[C@H]1CC[C@H]2[C@@H]3[C@@H](O)C[C@@H]4C[C@H](O)CC[C@]4(C)[C@H]3CC[C@]12C [Tauroursodeoxycholic acid]	5.14	< 5	14.4 pmol/minute/mg protein	4.90^c pmol/minute/mg protein	19.3^b pmol/minute/mg protein	BLQ	BLQ	22.4	10.6	2.33 pmol/minute/mg protein	24.7 pmol/minute/mg protein	2.81 pmol/minute/mg protein	3.98 pmol/minute/mg protein	6.79 pmol/minute/mg protein	> 2	≤ 12.6%	a substrate of BSEP transporters	0.05 (≈ 25 µg/mL)	10 (≈ 5000 µg/mL)	strongly inhibited; also recorded: inhibited	activity at 30 min, 5 μM [1]: 46.2%; Signal-to-Noise Ratio ([2]; test article 1 μM): 3.94; Signal-to-Noise Ratio [2, 6]: 1.71; substrate of BSEP (conclusion in words) ([2]; test article 1 and 10 μM, listed as tauroursodeoxycholic acid): a substrate of BSEP; inhibition of test article uptake by cyclosporine A ([2]; test article 1 and 10 μM): inhibited by cyclosporine A; inhibitor of BSEP (conclusion in words) ([4]; listed as TURSO): inhibitors of BSEP; ATP-Dependent Uptake Activity of 3H-taurocholic acid ([4]; inhibitor 5 μM): 6.71 pmol/minute/mg protein; Signal-to-Noise Ratio ([4]; inhibitor 5 μM): 10.1^b; Uptake Activity of 3H-taurocholic acid, Mg-AMP ([4]; inhibitor 5 μM): 0.737 pmol/minute/mg protein; Uptake Activity of 3H-taurocholic acid, Mg-ATP ([4]; inhibitor 5 μM): 7.45^b pmol/minute/mg protein; ATP-Dependent Uptake Activity of 3H-taurocholic acid ([4]; inhibitor 50 μM): 0.747 pmol/minute/mg protein; Signal-to-Noise Ratio ([4]; inhibitor 50 μM): 2.34; Uptake Activity of 3H-taurocholic acid, Mg-AMP ([4]; inhibitor 50 μM): 0.556 pmol/minute/mg protein; Uptake Activity of 3H-taurocholic acid, Mg-ATP ([4]; inhibitor 50 μM): 1.30 pmol/minute/mg protein
C[C@H](CCC(=O)O)[C@H]1CC[C@H]2[C@@H]3[C@@H](O)C[C@@H]4C[C@H](O)CC[C@]4(C)[C@H]3CC[C@]12C [Ursodeoxycholic acid]	64	< 500	could not be detected	BLQ	BLQ	BLQ	BLQ	0.792	1.26	3.08^b pmol/minute/mg protein	3.87^b pmol/minute/mg protein	–	BLQ	5.61^b pmol/minute/mg protein	< 2	–	not a substrate	0.5 (≈ 196 µg/mL)	100 (≈ 39300 µg/mL)	inhibited uptake of the probe substrate	IC50 at 30 min [1]: < 500 µM; activity at 30 min, 500 μM [1]: 4.5%; ATP-Dependent Uptake Activity of test article [2, 9]: 0.792^b pmol/minute/mg protein; Signal-to-Noise Ratio [2, 9]: 1.26^b; substrate of BSEP (conclusion in words) ([2]; test article 1 and 10 μM, listed as ursodeoxycholic acid): not a substrate of BSEP; inhibitor of BSEP (conclusion in words) ([4]; listed as ursodeoxycholic acid): inhibitors of BSEP; ATP-Dependent Uptake Activity of 3H-taurocholic acid ([4]; inhibitor 50 μM): 6.04 pmol/minute/mg protein; Signal-to-Noise Ratio ([4]; inhibitor 50 μM): 9.66; Uptake Activity of 3H-taurocholic acid, Mg-AMP ([4]; inhibitor 50 μM): 0.697 pmol/minute/mg protein; Uptake Activity of 3H-taurocholic acid, Mg-ATP ([4]; inhibitor 50 μM): 6.73 pmol/minute/mg protein; ATP-Dependent Uptake Activity of 3H-taurocholic acid ([4]; inhibitor 500 μM): 0.425 pmol/minute/mg protein; Signal-to-Noise Ratio ([4]; inhibitor 500 μM): 1.95; Uptake Activity of 3H-taurocholic acid, Mg-AMP ([4]; inhibitor 500 μM): 0.449 pmol/minute/mg protein; Uptake Activity of 3H-taurocholic acid, Mg-ATP ([4]; inhibitor 500 μM): 0.873 pmol/minute/mg protein
O=C(O)CCCc1ccccc1 [Sodium phenylbutyrate]	–	–	–	BLQ	BLQ	–	–	–	–	–	–	–	BLQ	BLQ	–	–	not a substrate of BSEP	0.25	50	did not meet the criteria for identification as an inhibitor; also recorded: did not inhibit	activity at 30 min, 25 μM [1]: 77.2%; activity at 30 min, 250 μM [1]: 82.4%; uptake of test article by BSEP vesicles ([2]; test article 1 and 10 μM): not detected; substrate of BSEP (conclusion in words) ([2]; test article 1 and 10 μM, listed as sodium phenylbutyrate): not identified as a substrate; ATP-Dependent Uptake Activity of 3H-taurocholic acid ([4]; inhibitor 25 μM): 19.3 pmol/minute/mg protein; Signal-to-Noise Ratio ([4]; inhibitor 25 μM): 35.9; Uptake Activity of 3H-taurocholic acid, Mg-AMP ([4]; inhibitor 25 μM): 0.554 pmol/minute/mg protein; Uptake Activity of 3H-taurocholic acid, Mg-ATP ([4]; inhibitor 25 μM): 19.9 pmol/minute/mg protein; ATP-Dependent Uptake Activity of 3H-taurocholic acid ([4]; inhibitor 250 μM): 20.6 pmol/minute/mg protein; Signal-to-Noise Ratio ([4]; inhibitor 250 μM): 31.6; Uptake Activity of 3H-taurocholic acid, Mg-AMP ([4]; inhibitor 250 μM): 0.673 pmol/minute/mg protein; Uptake Activity of 3H-taurocholic acid, Mg-ATP ([4]; inhibitor 250 μM): 21.3 pmol/minute/mg protein
C[C@H](CCC(=O)NCC(=O)O)[C@H]1CC[C@H]2[C@@H]3[C@@H](O)C[C@@H]4C[C@H](O)CC[C@]4(C)[C@H]3CC[C@]12C [Glycoursodeoxycholic acid]	–	< 10	11.2 pmol/minute/mg protein	BLQ	11.2 pmol/minute/mg protein	BLQ	BLQ	14.2	–	BLQ	14.2 pmol/minute/mg protein	0.00^b pmol/minute/mg protein	6.93 pmol/minute/mg protein	BLQ	> 2	No remaining BSEP activity	a substrate of BSEP transporters	0.1 (≈ 45 µg/mL)	50 (≈ 22500 µg/mL)	strongly inhibited; also recorded: inhibited	activity at 30 min, 10 μM [1]: 48.3%; activity at 30 min, 100 μM [1]: 10.4%; substrate of BSEP (conclusion in words) ([2]; test article 1 and 10 μM, listed as glycoursodeoxycholic acid): a substrate of BSEP; inhibition of test article uptake by cyclosporine A ([2]; test article 1 and 10 μM): inhibited by cyclosporine A; inhibitor of BSEP (conclusion in words) ([4]; listed as glycoursodeoxycholic acid): inhibitors of BSEP; ATP-Dependent Uptake Activity of 3H-taurocholic acid ([4]; inhibitor 10 μM): 8.56 pmol/minute/mg protein; Signal-to-Noise Ratio ([4]; inhibitor 10 μM): 11.9; Uptake Activity of 3H-taurocholic acid, Mg-AMP ([4]; inhibitor 10 μM): 0.788 pmol/minute/mg protein; Uptake Activity of 3H-taurocholic acid, Mg-ATP ([4]; inhibitor 10 μM): 9.35 pmol/minute/mg protein; ATP-Dependent Uptake Activity of 3H-taurocholic acid ([4]; inhibitor 100 μM): 1.84 pmol/minute/mg protein; Signal-to-Noise Ratio ([4]; inhibitor 100 μM): 2.89; Uptake Activity of 3H-taurocholic acid, Mg-AMP ([4]; inhibitor 100 μM): 0.974 pmol/minute/mg protein; Uptake Activity of 3H-taurocholic acid, Mg-ATP ([4]; inhibitor 100 μM): 2.81 pmol/minute/mg protein

Reference: patent publication US12138272B2, “Methods and compositions for treating amyotrophic lateral sclerosis” (Amylyx Pharmaceuticals, Inc., priority 2022, dated 2024)
